Data: US20230407243A1, “GENETIC PLATFORM TO INVESTIGATE THE FUNCTIONS OF BACTERIAL DRUG EFFLUX PUMPS” (priority 2022, published 2023)
Where two headings read alike, the source gives them in different places.

Columns and labels:
Assay type in all cases: cell-based, Escherichia coli
wild-type (WT) K-12-Pore = assay: microbe, parasite or virus in culture; settings: Escherichia coli, technical duplicate
Method: (§1) For genomic integration of the pore, the fhuA ΔC/Δ4L gene and the adjacent gentamicin resistance cassette were amplified using a high-fidelity polymerase and the fhuA_40_Up/gImS_3680_Low primers (Table 4). Integration of the pore gene was performed as described above. The pore gene was introduced into the intergenic region between the glmS and pstS genes, with gene expression under the control of a constitutive promoter (Kearse, M. et al., 2012). Genomic integrations were verified using PCR (Primers: pstS_520_Up/glmS_3680_Low, Table 4). Successful integrations were transformed with pCP20 to remove the gentamicin resistance cassette as previously described. Activity of the pore was confirmed through susceptibility testing with the large antibiotic vancomycin prior to phenotypic profiling and further susceptibility testing.
(§2) Single colonies were used to inoculate 3 mL of LB followed by incubation at 37° C. for 18 h with aeration at 220 rpm. The bacterial cells were harvested by centrifugation and resuspended in phosphate buffered saline (PBS) ([pH 7.4], 137 mM NaCl (Bioshop), 2.7 mM KCl (Bioshop), 10 mM Na2PO4 (Bioshop) and 1.8 mM K2PO4) to an OD600 nm˜1.0, followed by 1/2000 dilution into MHB II.
(§3) To a 384-well microtiter plate (Corning, untreated polystyrene), 500 nL of compound was dispensed, in duplicate, and serially titrated 2-fold using an Echo 550 acoustic liquid dispenser (Labcyte Inc.). […] As a solvent control, 500 nL of DMSO was applied to wells that contained no compound. Using a multichannel pipette, 50 μL of the prepared bacterial inoculum was applied to each well. To enable background correction post-incubation, the OD600 nm was measured (Biotek Synergy Neo2 microplate reader) prior to incubation. The plates were incubated at 37° C. with aeration at 900 rpm for 18 h. The plates were equilibrated to room temperature and the OD600 nm measured using a BioTek Synergy Neo2 microplate reader. Data was analyzed in both Prism (GraphPad, Version 9.2.0) and Microsoft Excel (Version 16.53). Raw data were input into Microsoft Excel and the pre-incubation OD600 nm measurements were subtracted from the post-incubation OD600 nm measurements. These corrected measurements were input into Prism 9 as a grouped analysis. […] All other MIC values were adjusted accordingly and visualized using the single-color scale grouped heat map function. Identification of compound chemical properties was achieved using DataWarrior (Version 5.5.0). Using PubChem, the SMILES chemical notation for each compound was obtained and compiled in Microsoft Excel. The resulting spreadsheet was input into DataWarrior and properties were calculated from the compound chemical structures.

ΔtolC-Pore = assay: microbe, parasite or virus in culture; settings: for MIC: Escherichia coli, 18 h, read-out: Minimum inhibitory concentration, ΔtolC-Pore; for Minimum inhibitory concentration (MIC), Pore ΔtolC: Table 10, with pore, technical duplicate
Method: as §1, §2, §3

[1] = system: wild-type E. coli K-12 str. BW25113; assay: microbe, parasite or virus in culture; settings: Escherichia coli, BW25113, technical duplicate
Method: as §2, §3

E. coli EKO-35 = assay: microbe, parasite or virus in culture; settings: for Fold change of MICs: EKO-35 compared to EKO-35 (reference); for MIC: Escherichia coli, EKO35, technical duplicate
Method: as §2, §3

E. coli ΔtolC = assay: microbe, parasite or virus in culture; settings: for MIC: Escherichia coli, 18 h, read-out: Minimum Inhibitory Concentration, ΔtolC; for Minimum inhibitory concentration (MIC), ΔtolC: Table 10, without pore, technical duplicate
Method: as §2, §3

EKO-35-Pore = assay: MIC susceptibility profiling, porinated strain; settings: for Fold changes of MICs: EKO-35-Pore compared to EKO-35-Pore (reference); for MIC: Escherichia coli, technical duplicate
Method: as §1, §2, §3

EKO-35 araC::acrEF Pore = assay: MIC susceptibility profiling, porinated efflux platform; settings: for MIC: Escherichia coli, Table 14A, porinated, technical duplicate, read-out: Minimum inhibitory concentration, EKO-35 araC::acrEF Pore
Method: as §1, §2, §3

EKO-35 araC::emrAB Pore = assay: as above; settings: for MIC: Escherichia coli, EKO-35 araC::emrAB Pore, technical duplicate, read-out: Minimum inhibitory concentration
Method: as §1, §2, §3

EKO-35 araC::mdtEF Pore = assay: as above; settings: for MIC: Escherichia coli, Table 14A, porinated, technical duplicate, read-out: Minimum inhibitory concentration, EKO-35 araC::mdtEF Pore
Method: as §1, §2, §3

EKO-35 araC::mdtBC Pore = assay: as above; settings: for MIC: Escherichia coli, EKO-35 araC::mdtBC Pore, technical duplicate, read-out: Minimum inhibitory concentration
Method: as §1, §2, §3

EKO-35 araC::emrKY Pore = assay: as above; settings: for MIC: Escherichia coli, EKO-35 araC::emrKY Pore, technical duplicate, read-out: Minimum inhibitory concentration
Method: as §1, §2, §3

EKO-35 araC::macAB Pore = assay: as above; settings: for MIC: Escherichia coli, EKO-35 araC::macAB Pore, technical duplicate, read-out: Minimum inhibitory concentration
Method: as §1, §2, §3

EKO-35 araC::mexCD Pore = assay: as above; settings: for MIC: Escherichia coli, EKO-35 araC::mexCD Pore, technical duplicate, read-out: Minimum inhibitory concentration
Method: as §1, §2, §3

EKO-35 araC::acrD Pore = assay: as above; settings: for MIC: Escherichia coli, Table 14A, porinated, technical duplicate, read-out: Minimum inhibitory concentration, EKO-35 araC::acrD Pore
Method: as §1, §2, §3

[2] = system: EKO-35 araC::acrBD408A Pore; assay: as above; settings: for MIC: Escherichia coli, EKO-35 araC::acrBD408A Pore, technical duplicate, read-out: Minimum inhibitory concentration
Method: as §1, §2, §3

EKO-35 araC::macAB = assay: MIC susceptibility profiling, efflux platform; settings: for MIC: Escherichia coli, Table 13B, non-porinated, technical duplicate, read-out: Minimum Inhibitory Concentration, EKO-35 araC::macAB
Method: as §2, §3

EKO-35 araC::emrAB = assay: MIC susceptibility profiling, efflux platform; settings: for MIC: Escherichia coli, Table 13B, non-porinated, technical duplicate, read-out: Minimum Inhibitory Concentration, EKO-35 araC::emrAB
Method: as §2, §3

EKO-35 araC::acrEF = assay: MIC susceptibility profiling, efflux platform; settings: for MIC: Escherichia coli, Table 13A, non-porinated, technical duplicate, read-out: Minimum Inhibitory Concentration, EKO-35 araC::acrEF
Method: as §2, §3

EKO-35 araC::acrB Pore = assay: MIC susceptibility profiling, porinated efflux platform; settings: Escherichia coli; Table 14A; porinated; technical duplicate; read-out: Minimum inhibitory concentration, EKO-35 araC::acrB Pore
Method: as §1, §2, §3

[3] = Table 10, with pore, read-out: Minimum inhibitory concentration (MIC), Pore K-12
[4] = Table 14A, porinated, read-out: Minimum inhibitory concentration, K-12 (WT)-Pore
[5] = Table 10, without pore, read-out: Minimum inhibitory concentration (MIC), K-12
[6] = Table 13A, non-porinated, read-out: Minimum Inhibitory Concentration, K-12
[7] = Table 10, without pore, read-out: Minimum inhibitory concentration (MIC), EKO-35
[8] = Table 13A, non-porinated, read-out: Minimum Inhibitory Concentration, EKO-35
[9] = Table 10, with pore, read-out: Minimum inhibitory concentration (MIC), Pore EKO-35
[10] = Table 14A, porinated, read-out: Minimum inhibitory concentration, EKO-35-Pore

SMILES	MIC (wild-type (WT) K-12-Pore; [3]) [µg/mL]	MIC (wild-type (WT) K-12-Pore; [4]) [µg/mL]	MIC (ΔtolC-Pore) [µg/mL]	Minimum inhibitory concentration (MIC), Pore ΔtolC (ΔtolC-Pore) [µg/mL]	MIC [1, 5] [µg/mL]	MIC [1, 6] [µg/mL]	MIC (E. coli EKO-35; [7]) [µg/mL]	MIC (E. coli EKO-35; [8]) [µg/mL]	MIC (E. coli ΔtolC) [µg/mL]	Minimum inhibitory concentration (MIC), ΔtolC (E. coli ΔtolC) [µg/mL]	MIC (EKO-35-Pore; [9]) [µg/mL]	MIC (EKO-35-Pore; [10]) [µg/mL]	MIC (EKO-35 araC::acrEF Pore) [µg/mL]	MIC (EKO-35 araC::emrAB Pore) [µg/mL]	MIC (EKO-35 araC::mdtEF Pore) [µg/mL]	MIC (EKO-35 araC::emrKY Pore) [µg/mL]	MIC (EKO-35 araC::macAB Pore) [µg/mL]	MIC (EKO-35 araC::mexCD Pore) [µg/mL]	MIC (EKO-35 araC::acrD Pore) [µg/mL]	MIC [2] [µg/mL]	also measured
COc1cccc2c1C(=O)c1c(O)c3c(c(O)c1C2=O)C[C@@](O)(C(C)=O)C[C@@H]3O[C@H]1C[C@H](N)[C@H](O)[C@H](C)O1 [daunorubicin]	100	100	0.781	0.781	200	200	3.12	3.12	1.56	1.563	0.781	0.781	25	1.56	50	0.781	1.56	12.5	1.56	0.781	Fold change of MICs (E. coli EKO-35): 1 fold; Fold changes of MICs (EKO-35-Pore): 1 fold; Fold changes of MICs (EKO-35 araC::acrEF Pore; EKO-35 araC::acrEF Pore compared to EKO-35-Pore): 32 fold; Fold changes of MICs (EKO-35 araC::emrAB Pore; EKO-35 araC::emrAB Pore compared to EKO-35-Pore): 2 fold; Fold changes of MICs (EKO-35 araC::mdtEF Pore; EKO-35 araC::mdtEF Pore compared to EKO-35-Pore): 64 fold; Fold changes of MICs (EKO-35 araC::mdtBC Pore; EKO-35 araC::mdtBC Pore compared to EKO-35-Pore): 4 fold; MIC (EKO-35 araC::mdtBC Pore): 3.12 µg/mL; efflux pump-mediated resistance vs EKO-35-Pore (EKO-35 araC::mdtBC Pore; MdtBC with the pore): associated with resistance; Fold changes of MICs (EKO-35 araC::emrKY Pore; EKO-35 araC::emrKY Pore compared to EKO-35-Pore): 1 fold; Fold changes of MICs (EKO-35 araC::macAB Pore; EKO-35 araC::macAB Pore compared to EKO-35-Pore): 2 fold; Fold changes of MICs (EKO-35 araC::mexCD Pore; EKO-35 araC::mexCD Pore compared to EKO-35-Pore): 16 fold; Fold changes of MICs (EKO-35 araC::acrD Pore; EKO-35 araC::acrD Pore compared to EKO-35-Pore): 2 fold; Fold changes of MICs ([2]; EKO-35 araC::acrBD408A Pore compared to EKO-35-Pore): 1 fold; Fold change of MICs (EKO-35 araC::macAB; EKO-35 araC::macAB compared to EKO-35): 2 fold; MIC (EKO-35 araC::macAB): 6.25 µg/mL; Fold change of MICs (EKO-35 araC::emrAB; EKO-35 araC::emrAB compared to EKO-35): 1 fold; MIC (EKO-35 araC::emrAB): 3.12 µg/mL; Fold change of MICs (EKO-35 araC::acrEF; EKO-35 araC::acrEF compared to EKO-35): 64 fold; MIC (EKO-35 araC::acrEF): 200 µg/mL
CC[C@H]1OC(=O)[C@H](C)[C@@H](O[C@H]2C[C@@](C)(OC)[C@@H](O)[C@H](C)O2)[C@H](C)[C@@H](O[C@@H]2O[C@H](C)C[C@H](N(C)C)[C@H]2O)[C@](C)(O)C[C@@H](C)C(=O)[C@H](C)[C@@H](O)[C@]1(C)O [erythromycin]	6.25	6.25	0.195	0.195	100	100	3.12	3.12	3.12	3.125	0.195	0.195	1.56	0.195	1.56	0.195	0.781	1.56	0.195	0.098	MIC (EKO-35 araC::mdtBC Pore): 0.195 µg/mL; MIC (EKO-35 araC::macAB): 12.5 µg/mL; efflux pump-mediated resistance vs EKO-35 (EKO-35 araC::macAB; MacAB): specific; MIC (EKO-35 araC::emrAB): 3.12 µg/mL; MIC (EKO-35 araC::acrEF): 50 µg/mL
CO[C@H]1/C=C/O[C@@]2(C)Oc3c(C)c(O)c4c(O)c(c(/C=N/N5CCN(C)CC5)c(O)c4c3C2=O)NC(=O)/C(C)=C\C=C\[C@H](C)[C@H](O)[C@@H](C)[C@@H](O)[C@@H](C)[C@H](OC(C)=O)[C@@H]1C [rifampicin]	0.781	0.781	0.391	0.391	12.5	12.5	6.25	6.25	6.25	6.25	0.391	0.391	0.391	0.195	0.391	0.391	0.391	0.391	0.391	0.195	Fold change of MICs (E. coli EKO-35): 1 fold; Fold changes of MICs (EKO-35-Pore): 1 fold; MIC (EKO-35 araC::acrB Pore): 1.56 µg/mL; MIC (EKO-35 araC::macAB): 6.25 µg/mL; MIC (EKO-35 araC::emrAB): 6.25 µg/mL; MIC (EKO-35 araC::acrEF): 6.25 µg/mL
